Laboratory results: ChEMBL document CHEMBL4311972, “Discovery of a benzothiophene-flavonol halting miltefosine and antimonial drug resistance in Leishmania parasites through the application of medicinal chemistry, screening and genomics” (Eur J Med Chem, 2019)
Calls of active or inactive are those of the source. The calls are words filed in the database; no cut-off is given here.

Assays:
[1] = Chemical stability of compound in PBS at 20 uM at pH 8 exposed to air bubbling followed by supplementation with human serum albumin measured for 6 hrs by UV-vis spectrophotometry analysis; type: physicochemical
[2] = Plasma concentration in syrian hamster infected with Leishmania infantum BCN150 promastigote at 40 mg/kg/day, po for 10 days formulated with 50% v/v cyclodextrin; type: ADME, organism-based, Mesocricetus auratus
[3] = system: Leishmania infantum; test: Antileishmanial activity against luciferase expressing intracellular amastigote stage of Leishmania infantum infected in human THP1 cells assessed as parasite growth inhibition measured after 48 to 72 hrs by steady-glo luciferase assay; type: functional, organism-based; conditions: Leishmania infantum, THP-1; read-out: EC50
[4] = system: Trypanosoma cruzi; test: Antitrypanosomal activity against intracellular amastigote stage of Trypanosoma cruzi Silvio X10/1 infected in human U2OS cells measured after 96 hrs by DRAQ5 dye based microscopic analysis; type: functional, organism-based
[5] = system: Trypanosoma brucei; test: Antitrypanosomal activity against Trypanosoma brucei bloodstream form assessed as parasite growth inhibition incubated for 72 hrs by resazurin dye based assay; type: functional, organism-based; conditions: Trypanosoma brucei, 72 h; read-out: EC50
[6] = system: Leishmania donovani; test: Antileishmanial activity against promastigote form of Leishmania donovani assessed as parasite growth inhibition; type: functional, organism-based
[7] = system: Leishmania major; test: Antileishmanial activity against promastigote form of Leishmania major assessed as parasite growth inhibition; type: functional, organism-based
[8] = system: Trypanosoma cruzi; test: Antitrypanosomal activity against Trypanosoma cruzi strain Y trypomastigotes infected in human HG39 cells by TaqMan probe based RT-PCR analysis; type: functional, organism-based
[9] = system: Trypanosoma cruzi; test: Antitrypanosomal activity against intracellular amastigote stage of Trypanosoma cruzi ARMA 13 cl1 infected in human U2OS cells measured after 96 hrs by DRAQ5 dye based microscopic analysis; type: functional, organism-based
[10] = system: Trypanosoma cruzi; test: Antitrypanosomal activity against intracellular amastigote stage of Trypanosoma cruzi 92.80 cl2 infected in human U2OS cells measured after 96 hrs by DRAQ5 dye based microscopic analysis; type: functional, organism-based
[11] = system: Trypanosoma cruzi; test: Antitrypanosomal activity against intracellular amastigote stage of Trypanosoma cruzi CL Brener infected in human U2OS cells measured after 96 hrs by DRAQ5 dye based microscopic analysis; type: functional, organism-based
[12] = Selectivity index, ratio of CC50 for human THP1 cells to EC50 for Trypanosoma brucei bloodstream form; type: toxicity; conditions: read-out: Ratio CC50/EC50
[13] = molecular target: hERG (KCNH2) (Homo sapiens, UniProt Q12809); test: Inhibition of human ERG at 10 uM incubated for 2 hrs by fluorescence polarization assay relative to control
[14] = molecular target: T1, CYP1A2 (Homo sapiens, UniProt P05177); test: Inhibition of human microsomal CYP1A2 expressed in baculovirus infected insect cells at 10 uM using luciferin-1A2 as substrate preincubated with enzyme/substrate mixture for 30 mins followed by further incubation with NADPH for 30 mins by CYP450 luciferase Glo assay relative to control; type: ADME; conditions: probe luciferin-1A2
T1 sequence (P05177 whole entry): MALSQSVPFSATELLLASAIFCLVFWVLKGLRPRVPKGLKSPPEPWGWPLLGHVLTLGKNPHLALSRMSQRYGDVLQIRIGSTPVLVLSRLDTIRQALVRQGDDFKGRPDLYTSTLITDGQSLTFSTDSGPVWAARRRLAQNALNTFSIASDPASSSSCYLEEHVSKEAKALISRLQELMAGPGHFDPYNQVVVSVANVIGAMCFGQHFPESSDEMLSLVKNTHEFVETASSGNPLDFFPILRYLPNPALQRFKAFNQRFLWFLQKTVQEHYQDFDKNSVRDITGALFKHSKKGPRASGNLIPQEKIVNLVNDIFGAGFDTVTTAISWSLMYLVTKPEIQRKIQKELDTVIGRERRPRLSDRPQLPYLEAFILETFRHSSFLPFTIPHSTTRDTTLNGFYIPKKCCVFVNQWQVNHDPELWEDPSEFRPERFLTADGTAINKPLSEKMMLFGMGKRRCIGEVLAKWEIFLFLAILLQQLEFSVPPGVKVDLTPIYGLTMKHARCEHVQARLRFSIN

[15] = molecular target: CYP2C19 (Homo sapiens, UniProt P33261); test: Inhibition of human microsomal CYP2C19 expressed in baculovirus infected insect cells at 10 uM using luciferin-H EGE as substrate preincubated with enzyme/substrate mixture for 30 mins followed by further incubation with NADPH for 30 mins by CYP450 luciferase Glo assay relative to control; type: ADME; conditions: probe luciferin-H EGE
[16] = molecular target: CYP2D6 (Homo sapiens, UniProt P10635); test: Inhibition of human microsomal CYP2D6 expressed in baculovirus infected insect cells at 10 uM using luciferin-ME as substrate preincubated with enzyme/substrate mixture for 30 mins followed by further incubation with NADPH for 30 mins by CYP450 luciferase Glo assay relative to control; type: ADME; conditions: probe luciferin-ME
[17] = molecular target: CYP3A4 (Homo sapiens, UniProt P08684); test: Inhibition of human microsomal CYP3A4 expressed in baculovirus infected insect cells at 10 uM using luciferin-IPA as substrate preincubated with enzyme/substrate mixture for 30 mins followed by further incubation with NADPH for 30 mins by CYP450 luciferase Glo assay relative to control; type: ADME; conditions: probe luciferin-IPA
[18] = Cytotoxicity against human A549 cells assessed as cell growth at […] incubated for 48 hrs by Celltiter-Glo luminescence assay relative to control; type: cell-based; set-up: dose or concentration left out as unconfirmed; conditions: read-out: Activity
[19] = system: 786-0; test: Mitochondrial toxicity in human 786-0 cells at 10 uM incubated with compound for 6 hrs followed by incubation with MitoTracker Red chloromethyl-X-rosamine dye for 45 mins by imaging analysis; type: cell-based; conditions: 786-0, 6 h
[20] = system: Trypanosoma cruzi; test: Antitrypanosomal activity against intracellular amastigote stage of Trypanosoma cruzi Y infected in human U2OS cells measured after 96 hrs by DRAQ5 dye based microscopic analysis; type: functional, organism-based
[21] = system: Leishmania donovani; test: (§1) Antileishmanial activity against Leishmania donovani 1SR promastigotes assessed as parasite growth at IC50 concentration incubated with compound for 3 days under selective pressure and selection cycle repeated 10 times for total of 33 days and measured at 3 to 33 days of selection relative to control; type: functional
[22] = system: Leishmania donovani; test: as §1, with “BPK091” for “1SR”, “promastigotes transfected with Leishmania donovani BPK190 genomic cosmid DNA” for “promastigotes”, “times” for “times for total of 33 days”, “37” for “3 to 33”; type: functional
[23] = system: Leishmania infantum; test: Antileishmanial activity against Leishmania infantum amastigotes infected in Syrian hamster assessed as parasite load within spleen at 40 mg/kg/day, po for 10 days formulated with 8% v/v DMSO (reference value: 9151063.431 +/- 2606154.975/g); type: functional
[24] = Toxicity in Syrian hamster infected with Leishmania infantum BCN150 promastigotes assessed as effect on alkaline phosphatase level at 40 mg/kg/day, po for 10 days formulated with 30 to 50% v/v cyclodextrin measured after the last treatment; type: organism-based, Mesocricetus auratus; conditions: in vivo, 240 h
[25] = Toxicity in Syrian hamster infected with Leishmania infantum BCN150 promastigotes assessed as effect on AST level at 40 mg/kg/day, po for 10 days formulated with 8% v/v DMSO measured after the last treatment; type: organism-based, Mesocricetus auratus; conditions: in vivo, 240 h
[26] = molecular target: Albumin (Homo sapiens, UniProt P02768); test: Binding affinity to human serum albumin in phosphate buffer assessed as decrease in emission intensity at 450 nm at 5 uM measured at pH 8 at albumin concentration of 0.6 +/-0.1 uM by fluorescence emission spectrum analysis; type: ADME; set-up: scale not given: the % may be the effect or the level left; conditions: isolated protein
[27] = Thermodynamic solubility of the compound in water at >50 uM; type: physicochemical; conditions: buffer
[28] = Toxicity in Syrian hamster infected with Leishmania infantum BCN150 promastigotes assessed as effect on plasma urea level at 20 mg/kg/day, po for 10 days measured after the last treatment; type: organism-based, Mesocricetus auratus; conditions: in vivo, 240 h

Chain of hERG (KCNH2) (Q12809 whole entry): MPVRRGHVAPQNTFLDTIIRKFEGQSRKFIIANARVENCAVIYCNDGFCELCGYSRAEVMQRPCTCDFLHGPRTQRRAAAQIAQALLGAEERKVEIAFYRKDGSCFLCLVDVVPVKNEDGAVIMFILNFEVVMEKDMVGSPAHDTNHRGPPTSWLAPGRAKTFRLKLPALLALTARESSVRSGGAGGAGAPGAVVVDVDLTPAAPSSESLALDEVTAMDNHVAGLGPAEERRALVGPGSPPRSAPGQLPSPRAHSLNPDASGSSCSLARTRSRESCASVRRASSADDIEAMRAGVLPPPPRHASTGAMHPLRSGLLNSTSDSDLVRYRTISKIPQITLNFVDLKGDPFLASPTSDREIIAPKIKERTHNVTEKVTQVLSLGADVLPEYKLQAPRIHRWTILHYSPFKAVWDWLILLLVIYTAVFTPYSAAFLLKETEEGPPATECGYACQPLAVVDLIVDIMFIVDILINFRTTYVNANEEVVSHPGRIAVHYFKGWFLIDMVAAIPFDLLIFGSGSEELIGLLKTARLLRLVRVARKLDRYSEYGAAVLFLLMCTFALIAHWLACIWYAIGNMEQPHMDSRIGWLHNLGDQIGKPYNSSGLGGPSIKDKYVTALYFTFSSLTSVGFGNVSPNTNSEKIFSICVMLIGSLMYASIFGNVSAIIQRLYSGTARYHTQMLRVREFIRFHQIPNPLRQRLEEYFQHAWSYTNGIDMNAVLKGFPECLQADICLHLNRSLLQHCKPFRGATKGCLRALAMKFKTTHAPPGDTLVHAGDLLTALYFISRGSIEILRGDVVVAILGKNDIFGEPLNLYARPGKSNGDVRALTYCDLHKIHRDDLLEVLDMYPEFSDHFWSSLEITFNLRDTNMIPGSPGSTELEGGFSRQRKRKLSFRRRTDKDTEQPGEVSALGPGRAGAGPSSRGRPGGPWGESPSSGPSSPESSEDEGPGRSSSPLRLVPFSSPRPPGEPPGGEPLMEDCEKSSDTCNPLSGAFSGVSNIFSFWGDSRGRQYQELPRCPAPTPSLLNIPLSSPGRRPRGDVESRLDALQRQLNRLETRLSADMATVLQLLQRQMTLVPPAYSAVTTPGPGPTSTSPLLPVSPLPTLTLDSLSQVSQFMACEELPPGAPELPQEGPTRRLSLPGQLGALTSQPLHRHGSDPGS
Chain of CYP2D6 (P10635 whole entry): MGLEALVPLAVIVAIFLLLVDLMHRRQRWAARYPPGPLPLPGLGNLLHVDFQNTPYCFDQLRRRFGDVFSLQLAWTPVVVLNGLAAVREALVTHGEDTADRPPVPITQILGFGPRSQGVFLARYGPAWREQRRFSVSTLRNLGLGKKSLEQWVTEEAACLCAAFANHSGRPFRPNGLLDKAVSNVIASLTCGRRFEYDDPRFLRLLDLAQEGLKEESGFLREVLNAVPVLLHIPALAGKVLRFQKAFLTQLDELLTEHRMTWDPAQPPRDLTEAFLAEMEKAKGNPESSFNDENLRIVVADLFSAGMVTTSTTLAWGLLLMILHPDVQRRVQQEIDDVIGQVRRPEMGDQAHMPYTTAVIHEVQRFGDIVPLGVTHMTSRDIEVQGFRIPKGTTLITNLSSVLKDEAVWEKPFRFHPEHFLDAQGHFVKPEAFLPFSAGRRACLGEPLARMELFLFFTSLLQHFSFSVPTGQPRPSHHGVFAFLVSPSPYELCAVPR
Chain of CYP2C19 (P33261 whole entry): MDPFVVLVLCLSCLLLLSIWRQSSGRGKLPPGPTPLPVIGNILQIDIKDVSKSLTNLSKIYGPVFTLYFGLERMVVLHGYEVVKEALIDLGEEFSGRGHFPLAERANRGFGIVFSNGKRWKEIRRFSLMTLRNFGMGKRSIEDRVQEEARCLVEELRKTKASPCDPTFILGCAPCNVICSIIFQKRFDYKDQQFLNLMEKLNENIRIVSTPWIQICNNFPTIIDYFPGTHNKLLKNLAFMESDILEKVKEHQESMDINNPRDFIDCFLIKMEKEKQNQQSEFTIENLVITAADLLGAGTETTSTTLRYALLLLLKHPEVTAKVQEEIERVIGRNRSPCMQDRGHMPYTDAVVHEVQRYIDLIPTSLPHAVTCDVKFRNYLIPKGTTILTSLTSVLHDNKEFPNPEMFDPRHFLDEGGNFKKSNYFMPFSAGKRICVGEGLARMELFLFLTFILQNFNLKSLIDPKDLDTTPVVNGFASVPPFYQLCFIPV
Chain of CYP3A4 (P08684 whole entry): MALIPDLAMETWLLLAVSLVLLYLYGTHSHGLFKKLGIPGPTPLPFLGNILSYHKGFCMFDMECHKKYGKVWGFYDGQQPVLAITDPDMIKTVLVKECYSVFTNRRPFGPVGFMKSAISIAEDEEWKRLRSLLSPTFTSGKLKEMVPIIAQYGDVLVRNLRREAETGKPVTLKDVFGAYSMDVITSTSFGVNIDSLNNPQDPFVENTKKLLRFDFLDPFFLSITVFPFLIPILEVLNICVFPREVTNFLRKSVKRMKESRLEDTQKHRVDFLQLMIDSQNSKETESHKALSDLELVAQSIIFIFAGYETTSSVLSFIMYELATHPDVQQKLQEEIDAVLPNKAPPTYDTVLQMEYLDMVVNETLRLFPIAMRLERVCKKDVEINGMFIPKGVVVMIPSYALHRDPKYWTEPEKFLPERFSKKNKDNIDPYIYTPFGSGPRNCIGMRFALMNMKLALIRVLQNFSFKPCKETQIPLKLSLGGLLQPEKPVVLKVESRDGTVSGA
Chain of Albumin (P02768 whole entry): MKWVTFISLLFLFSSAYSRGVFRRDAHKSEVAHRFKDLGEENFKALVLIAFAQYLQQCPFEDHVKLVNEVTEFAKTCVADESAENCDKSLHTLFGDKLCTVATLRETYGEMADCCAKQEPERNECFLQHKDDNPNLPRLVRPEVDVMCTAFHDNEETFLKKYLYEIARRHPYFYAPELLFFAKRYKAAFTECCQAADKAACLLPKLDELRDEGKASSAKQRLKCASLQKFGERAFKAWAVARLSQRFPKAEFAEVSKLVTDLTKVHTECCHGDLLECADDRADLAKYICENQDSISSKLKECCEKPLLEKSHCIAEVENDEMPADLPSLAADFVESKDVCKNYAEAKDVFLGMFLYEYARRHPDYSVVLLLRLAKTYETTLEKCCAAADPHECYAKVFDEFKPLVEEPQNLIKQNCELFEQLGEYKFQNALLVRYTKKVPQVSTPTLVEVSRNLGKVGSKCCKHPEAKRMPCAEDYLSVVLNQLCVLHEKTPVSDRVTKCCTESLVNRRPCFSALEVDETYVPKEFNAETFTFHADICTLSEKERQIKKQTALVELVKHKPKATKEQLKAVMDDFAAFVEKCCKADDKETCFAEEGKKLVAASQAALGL

Row | SMILES | EC50 [3] | EC50 [5] | EC50 [6] | EC50 [8] | inhibition at 2 h, 10 µM [13] | inhibition at 0.5 h, 10 µM [14] | inhibition at 0.5 h, 10 µM [15] | inhibition at 0.5 h, 10 µM [16] | inhibition at 0.5 h, 10 µM [17] | viability at 48 h [18] | Activity [19] | Activity [22] | Therm_solubility [27] | also measured
1 | COc1ccc2oc(-c3csc4ccccc34)c(O)c(=O)c2c1 | 1880 nM | 0.8 µM | 3.4 µM | 7.5 µM | 32% | 99.7% | -6.32% | 26.2% | 23.3% | 3.19% | -22.85% | >50% | Insoluble | Stability [1]: Stable; concentration at 240 h [2]: 38 nM; EC50 ([4]; Silvio X10/1, U2OS): 300 nM; EC50 [7]: 6.7 µM; EC50 ([9]; ARMA 13 cl1, U2OS): 1200 nM; EC50 ([10]; 92.80 cl2, U2OS): 700 nM; EC50 [11]: 600 nM; selectivity ratio [12]: 33; EC50 [20]: 900 nM; Activity [21]: <50%; Activity [23]: 6785423.957 g⁻¹; Activity [24]: Non-Toxic; Activity [25]: Non-Toxic; Activity [26]: 50%
2 | CCCCCCCCCCCCCCCCOP(=O)([O-])OCC[N+](C)(C)C [MILTEFOSINE] | 2510 to 3200 nM | 34 µM | 9 µM | 12.5 µM | -16.9% | -20% | 7.9% | 30.8% | 8.4% | 95.8% | 3.4% | >50% | Insoluble | inhibition [4]: Active; inhibition [7]: Active; inhibition [9]: Active; inhibition [10]: Active; inhibition [11]: Active; inhibition [20]: Active; Activity [28]: Non-Toxic
